According to US20030013640A1, “Integrin linked kinase modulation of leukocyte trafficking” (priority 2001, published 2003):

How the values were obtained:
neutrophils (PMN) [1] = conditions: mouse, in vivo; cited from earlier work
neutrophils (PMN) [2] = test: Zymosan-induced PMN accumulation in mouse peritoneal cavity; format: in vivo
Protocol: (§1) Zymosan (an insoluble inflammogen derived from the yeast wall, Ajuebor et al. (1998) J. Leukoc. Biol. 63, 108-116) is injected i.p. in mice, control animals receive only sterile saline. Cellular influx into the peritoneal cavities is evaluated either at the 4 h time-point (for PMN) or at 24 h (for monocytes), by killing animals by CO2 exposure, and washing the cavities with 3 ml of sterile PBS supplemented with 3 mM EDTA and 25 U/ml heparin. Cells in the lavage fluids are stained in Turk's solution and differential counting is performed with a light microscope.
PMN influx ranges between 15-20 million cells per mouse, and is sensitive to anti-chemokine (i.e. antibodies to MCP-1) and anti-adhesion reagents (i.e. antibody to CD11b) as well as to more classical anti-inflammatory drugs, e.g. PAF antagonists; indomethacin, 5-lipoxygenase inhibitors, etc. The positive control is dexamethasone, which reduces zymosan-induced PMN influx with an approximate ED50 of 0.9 mg/kg s.c. (given 2 h prior to zymosan). The effects of ILK inhibitors are determined in groups pre-treated with various concentrations of ILK inhibitors, usually in systemic administration doses in the range of 10-300 mg/kg, and usually administered every 1-4 hours prior to the cytokine, and up to the time of euthanasia, (dependent on pharmacokinetics of specific ILK inhibitor).

monocytes [3] = test: Zymosan-induced monocyte accumulation in peritoneal cavity (24 h); format: in vivo; conditions: Mus musculus, sc, given 2 h prior to zymosan, 24 h time-point
Protocol: as §1
Monocyte accumulation at the 24 h time-point is in the order of 10-14 million cells per animal. The effect of known drugs on this parameter have not been well investigated, however it is sensitive to anti-chemokine therapy (i.e. antibodies to MCP-1) and to dexamethasone. The latter is the positive control with an approximate ED50 of 0.9 mg/kg s.c. (given 2 h prior to zymosan). The effects of ILK inhibitors are determined in groups pre-treated with various concentrations of ILK inhibitors, usually in systemic administration doses in the range of 10-300 mg/kg, and usually administered every 1-4 hours prior to the cytokine, and up to the 2 hours after (timing dependent on pharmacokinetics of specific ILK inhibitor).

neutrophils (PMN) [4] = test: IL-1β-induced neutrophil accumulation in mouse dorsal air-pouch; format: in vivo; conditions: sc, given 2 h prior, 4 h, read-out: ED50 for inhibition of IL-1β-induced PMN migration
Protocol: Acute accumulation of neutrophils (PMN) into a specific tissue site is a hallmark of the inflammatory response, and can be reproduced in vivo in the mouse following IL-1β injection into a preformed s.c. dorsal air-pouch. This model has the advantage of a quick (maximal at 4 h) and intense (between 5 and 8 million PMN per animal) response (Perretti & Flower (1993) J. Immunol. 150:992-999).
Six-day-old air-pouches are formed on the back of mice by injection of 2.5 ml of air on day 0 and day 3. On day 6, 5 ng of murine recombinant IL-1β is injected into the air-pouch, or vehicle only, i.e. 0.5% carboxymethylcellulose in PBS. Cellular influx into the air-pouches is evaluated at the 4 h time-point, by killing animals by CO2 exposure, and washing the cavities with 2 ml of sterile PBS supplemented with 3 mM EDTA and 25 U/ml heparin. Cells in the lavage fluids are stained in Turk's solution and differential counting is done with a light microscope.
This model is not sensitive to indomethacin and BWA4C, but is sensitive to PAF antagonists, anti-adhesion molecule reagents, tachykinin NK1 antagonists, etc. The effects of ILK inhibitors are determined in groups pre-treated with various concentrations of ILK inhibitors in systemic administration doses in the range of 10-300 mg/kg, administered every 1-4 hours prior to the cytokine, and up to the time of euthanasia.

monocytes [5] = test: MCP-1-induced monocyte accumulation in peritoneal cavity; format: in vivo; conditions: sc, 0.1 mg/kg per mouse s.c. 1 h prior to MCP-1
Protocol: Monocyte chemoattractant protein-1 (MCP-1) given i.p. (1 μg) induces a selective accumulation of monocytes which is maximal at the 6 h post-injection (between 1-3 million monocytes per mouse), above the mild effect of the vehicle (0.25 ml of sterile saline) alone. After MCP-1 injection, animals are killed by CO2 exposure, and cavities washed with 3 ml of sterile PBS supplemented with 3 mM EDTA. Cells in the lavage fluids are stained in Turk's solution and differential counting is performed using a light microscope by a scientist unaware of the experimental groups. Monocyte influx is also confirmed by staining with F4/80 and FACS analysis. The effects of ILK inhibitors are determined in groups pre-treated with various concentrations of ILK inhibitor in systemic administration doses in the range of 10-300 mg/kg, administered every 1-4 hours prior to the cytokine, and up to the time of euthanasia (timing dependent on pharmacokinetics of specific ILK inhibitor). […] The positive control is dexamethasone which produces approximately 50% inhibition at the dose of 0.1 mg/kg per mouse given s.c. 1 h prior to MCP-1.

[6] = tested on: leukocyte-endothelium interaction; test: Intravital microscopy of IL-1β-inflamed mouse mesenteric vascular bed; format: in vivo; conditions: 0.5 mg/kg s.c. 1 hour prior to IL-1β
Protocol: Mice are injected i.p. with 20 ng mouse recombinant IL-1β and left at liberty until the beginning of the experiment. Control animals receive sterile saline alone (1 ml per rat i.p.). Animals are anaesthetised with Inactin™, shaved on the neck and abdominal areas, and a tracheotomy is performed to facilitate breathing during the experimentation. Cautery incisions are made along the abdominal line, the mesentery is exposed and placed on a viewing plexiglass stage.
The preparation is mounted on a Zeiss Axioskop and is then transilluminated with a 12-V, 100-W halogen light source. […] A video time-date generator projects the time, date and stopwatch function onto the monitor.
Particular care is taken to assure observation of the mesenteric vascular bed exactly 2 h after injection of the cytokine. Mesenteries are superfused with thermostated (37° C.) bicarbonate-buffered solution (pH=7.4, gassed with 5% CO2/95% N2) at a rate of 2 ml/min. Three to five randomly selected post-capillary venules (diameter between 20-40 μm; length of at least 100 μm) are observed for each rat. Off-line analysis is performed to quantify the extent of cell adhesion (the number of adherent leukocytes in 100 μm length vessel wall), and leukocyte emigration (the number of cells that had emigrated out of the vessel up to 50 μm, 50 to 100 μm and 100-150 μm away from the vessel wall in parallel with 100 μm vessel segments).
IL-1β produces an intense response (>20 adherent cells per 100 μm length) that is modulated in part by endogenous PAF, ICAM-1 and the chemokine CINC. Therefore, agents that interfere with these mediators are identified using this technique. The effects of ILK inhibitors are determined in groups pre-treated with various concentrations of ILK inhibitors, in systemic administration doses in the range of 10-300 mg/kg, and administered every 1-4 hours prior to the cytokine, and up to the 2 hours after (timing dependent on pharmacokinetics of specific ILK inhibitor). Pre-treatment with ILK inhibitors is expected to result in a significant decrease in the number of leucocytes that are recruited.
Mouse mesenteric vascular bed was inflamed with interleukin-1β. The anti-inflammatory properties of KP-401-A (an ILK inhibitor) were compared to dexamethasone (positive control) as determined by intravital microscopy. […]
Cell rolling was measured by white blood cell velocity. Cell adhesion was quantified by counting, for each vessel, the number of adherent neutrophils in a 100 μm length. Leukocyte emigration from the microcirculation into the tissue was quantified by counting the number of cells that had emigrated up to 50 μm away from the wall of the 100 μm vessel segments. […]

neutrophils (PMN) [7] = conditions: classical anti-inflammatory drugs; cited from earlier work

Row | Structure (SMILES) | sensitivity of IL-1β air-pouch model to the drug (neutrophils (PMN) [1]) | ED50 (neutrophils (PMN) [2]; Mus musculus, Neutrophil, sc, given 2 h prior to zymosan, 4 h time-point, read-out: ED50 for reduction of zymosan-induced PMN influx) [mg/kg] | PMN Accumulation (× 10^6 cells) ± SE (neutrophils (PMN) [2]; dose 1.5 mg/kg s.c., 60 min prior to and 60 min following i.p. Zymosan 1 mg/mouse, measured 4 h later, mean ± SE, n = 5) | ED50 (monocytes [3]) [mg/kg] | ED50 (neutrophils (PMN) [4]) [mg/kg] | inhibition at 0.1 mg/kg (monocytes [5]) [%] | Adherent Cells (no. 100 μm) ([6]; 2 hours after IL-1β) | Emigrated Cells (no. 50 × 100 μm^2) ([6]; 2 hours after IL-1β) | Cell Flux (no. per min) ([6]; observed 2 hours after IL-1β) | Cell Rolling (VWBC) ([6]; white blood cell velocity, 2 hours after IL-1β) | sensitivity of zymosan-induced PMN influx to the drug (neutrophils (PMN) [7])
1 | CC(=O)N(O)C/C=C/c1cccc(Oc2ccccc2)c1 [BWA4C] | not sensitive |  |  |  |  |  |  |  |  |  | 
2 | C[C@@H]1C[C@H]2[C@@H]3CCC4=CC(=O)C=C[C@]4(C)[C@@]3(F)[C@@H](O)C[C@]2(C)[C@@]1(O)C(=O)CO [dexamethasone] |  | ~0.9 | 4.0 ± 0.79 × 10^6 cells | ~0.9 | ~0.15 | ~50 | 1.4 ± 0.1 | 1.8 ± 0.3 | 7.0 ± 1.5 | 17 ± 2.5 | 
3 | COc1ccc2c(c1)c(CC(=O)O)c(C)n2C(=O)c1ccc(Cl)cc1 [indomethacin] | not sensitive |  |  |  |  |  |  |  |  |  | sensitive
